The values below come from US11473088B2, “Method of treating cancer and method of sensitizing cancer cells to the action of chemotherapeutic agents via growth hormone receptor antagonists or knock down” (Ohio University, priority 2016, dated 2022).

What all share (format): cell-based, human
In one assay the test system is melanoma cells. The assay can be described thus: Migration, invasion, clonogenicity with excess GH. Particulars: up to 150 ng/ml GH. The method, then: Cell migration assays are standard methods of estimating the repair and regenerative properties of cells. In this example, the Radius Cell Migration Assay design from Cell Biolabs (Cell Biolabs #CBA-125, San Diego, Calif.) was used, and experiments were performed as per the manufacturer's protocol. In this assay, a 24-well plate containing a non-toxic, 0.68 mm biocompatible hydrogel spot is present at the center of the well, which spot prevents the attachment of cells. siRNA treated cells were trypsinized 48 hours post-transfection, counted, and seeded at 5000 cells/well in a pretreated hydrogel spot-containing 24-well plate. […] Images were captured every 24 hours using a 4× objective (total magnification 40×) employing an inverted Olympus IX70 microscope fitted with a Retiga 1300 camera (QImaging, Surrey, BC). Total uncovered area at the beginning and end of assay were quantitated using ImageJ software, Experiments were performed in triplicates.
The 96-well 3D spheroid BME cell invasion assay (Trevigen, Gaithersburg, Md.) was used to evaluate the ability of cells to invade surrounding tissue. […] The invasive behavior of the cells was monitored every 24 hours for up to 72 hours. […] Total pixels at the beginning and end of assay were quantitated using ImageJ software. […]
Colony formation on soft agar assay was next examined using a high-throughput fluorescent readout. […]

The next assay deals with SK-MEL-28 cells. The assay can be described thus: Phosphorylation of intracellular signaling intermediates by WB. The protocol: (§1) Briefly, cell lysates were separated by SDS-PAGE and transferred to nitrocellulose membrane by a wet-transfer method at 70 mA over 14 hours at 4° C. and blocked with 5% non-fat dry milk (NFDM) or 5% bovine serum albumin (BSA) in 1× TBS-T (Tris buffered saline, […] with 0.1% Triton-X100) for 12-16 hours at 4° C. with gentle rocking. Membranes were then incubated with primary antibody (at the specific dilutions cited below) for 12-16 hours at 4° C. with gentle rocking. Membranes were then washed for 5 min. 3 times with 1× TBS-T and incubated with corresponding secondary antibodies (at the specific dilutions cited below) for 2 hours at 25° C. Membranes were then washed for 5 min. 4 times with 1× TBS-T, treated with West Femto Chemiluminiscence detection reagents (Thermo Fisher Scientific), and the chemiluminiscence signal was captured using a GelDoc (Biorad) fluorescence reader. Densitometric analysis of the blots was performed by measured band-intensity from the area-under-curve using ImageJ software.
(§2) GH-GHR action regulates phosphorylation states of intracellular signaling intermediates in human melanoma cells: In order to assess the effects of GHR-KD on the activation states of GH regulated shared oncogenic signaling pathways, scr-siRNA or GHR-siRNA transfected human melanoma cells, at 60 hours post-transfection, were treated with 50 ng/ml hGH for 20 minutes, and phosphorylation levels of intracellular signaling intermediates were analyzed by WB. Results are described below, and shown in FIGS. 9A-9I, 10A-10L, and 11A-11I. For the results described and shown in FIGS. 9A-I, SK-MEL-28 cells, 24 hr post-transfection with either scramble (scr)-siRNA or GHR-siRNA were treated for ten mins with GH and lysed as described. WB was performed using appropriate antibodies. Densitometry analyses of individual blots was performed using Image) software and the ratio of phosphorylated vs. total protein levels against untreated scr-siRNA transfected controls. Overall, excess GH increased while GHR-KD decreased phosphorylation states. […] In all cases, […]] Blots from individual experiments were quantified and the mean of three blots per antibody was taken. Protein levels were normalized against expression of β-actin. [*, p<0.05, Students t test, n=3]. And, for the results described and shown in FIGS. 11A-11I, WB was performed using appropriate antibodies. Densitometry analyses of individual blots was performed using ImageJ software and the ratio of phosphorylated vs. total protein levels against untreated scr-siRNA transfected controls. Overall, excess GH increased while GHR-KD decreased phosphorylation states. Blots from individual experiments were quantified and the mean of three blots per antibody was taken. Protein levels were normalized against expression of β-actin. [*, p<0.05, Students t test, n=3]

The subject of another assay is SK-MEL-5 cells. Described as above. The method, then:
as §1, §2

Another assay has as its system MALME-3M cells. The description is as above. The protocol:
as §1, §2

On to “hGH: Recombinant human growth hormone, Antibodies Online #ABIN2017921”, for which the “melanoma migration, invasion, or clonogenicity upon incubation with excess GH” value with melanoma cells is “No marked increase”. Moreover, in the assay with SK-MEL-28 cells, the “increase in GH-induced phosphorylation of JAK2” value came out at 6.1 fold and the “increase in GH-induced phosphorylation of SRC” value came to 3.5 fold. In the assay with SK-MEL-28 cells (50 ng/ml hGH), the STAT5 phosphorylation increased came out at 4.1 fold, the “increase in STAT1 phosphorylation level” value came to 2.4 fold and the “increase in STAT3 phosphorylation level” value turned out to be 1.9 fold. For the same substance, in the assay on SK-MEL-5 cells, the “ERK1/2 levels upregulated by GH (increase)” value worked out at 5 fold and the “increase in GH-induced phosphorylation of JAK2” value came out at 1.7 fold. In the assay on SK-MEL-5 cells (50 ng/ml hGH), the “increase of AKT phosphorylation level” value was “up to 4 fold” and the “increase of mTOR phosphorylation level” value was at most 15 fold. Moreover, the “increase in GH-induced phosphorylation of SRC” value with MALME-3M cells amounted to 1.7 fold. Further, in the assay on MALME-3M cells (50 ng/ml hGH), the STAT5 phosphorylation increased is recorded as 5.8 fold, the “increase in STAT1 phosphorylation level” value is listed as 2.2 fold and the “increase in STAT3 phosphorylation level” value came out at 11.9 fold.
